Source: publication PMC3781954 (Archives of biochemistry and biophysics, 2013)

Assays:
[1] = target: T1, Rabbit CYP2E1 (Oryctolagus cuniculus, UniProt P08682); experiment: Inhibition of 4-nitrophenol oxidation to 4-nitrocatechol by reconstituted CYP2E1; conditions: for Inhibition Mechanism: most probable mechanism by DynaFit model discrimination, substrate 4-nitrophenol; for fold more potent than pyrazole: inhibition of CYP2E1 4-nitrophenol metabolism; for kcat2: turnover of the ESI complex, 95% confidence intervals in parentheses
T1 sequence (P08682 whole entry): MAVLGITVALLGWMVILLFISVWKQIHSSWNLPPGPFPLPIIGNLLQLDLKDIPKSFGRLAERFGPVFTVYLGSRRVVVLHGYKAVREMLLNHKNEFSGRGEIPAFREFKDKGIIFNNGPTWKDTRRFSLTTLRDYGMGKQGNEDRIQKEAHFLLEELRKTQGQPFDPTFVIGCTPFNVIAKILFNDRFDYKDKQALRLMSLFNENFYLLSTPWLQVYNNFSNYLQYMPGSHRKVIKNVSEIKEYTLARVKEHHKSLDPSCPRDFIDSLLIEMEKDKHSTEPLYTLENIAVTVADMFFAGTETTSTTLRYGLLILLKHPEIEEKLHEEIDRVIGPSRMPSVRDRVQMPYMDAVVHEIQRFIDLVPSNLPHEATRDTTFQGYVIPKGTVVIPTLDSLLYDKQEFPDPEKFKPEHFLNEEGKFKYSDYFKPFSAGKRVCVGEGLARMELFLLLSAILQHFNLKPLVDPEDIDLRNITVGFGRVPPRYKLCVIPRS

[2] = target: T1, Rabbit CYP2E1; experiment: Spectral binding studies; conditions: for fold increase in affinity (Kd) relative to pyrazole: catalytic site
[3] = target: CYP2E1 (Oryctolagus cuniculus, UniProt P08682); experiment: Spectral binding studies; design: species or system rabbit; conditions: rabbit, pH 7.4
Chain of CYP2E1 (Oryctolagus cuniculus, UniProt P08682) (P08682 whole entry): as above

[4] = test system: CYP2E1; conditions: positive cooperativity; ref [4], [6]; cited from earlier work

Row | SMILES | Inhibition Mechanism [1] | Kd [2] | kcat2 [1] | also measured
1 | c1ccc(-c2cc[nH]n2)cc1 [3-phenylpyrazole] | Competitive | 22 µM |  | 
2 | c1n[nH]c2c1CCCC2 | Mixed, coop. substrate |  | 6.6 (2.3 to 9.6) min^−1 | fold more potent than pyrazole [1]: 100 fold; fold increase in affinity (Kd) relative to pyrazole ([2]; spectral binding): 800 fold
3 | Cc1cc[nH]n1 [3-methylpyrazole] | Mixed, coop. substrate | 11 µM | 8.7 (7.0 to 10) min^−1 | fold higher affinity for the free enzyme than the ES complex [1]: two-fold; fold increase in affinity (Kd) relative to pyrazole ([2]; spectral binding): 2 fold; Kd [3]: 1700 µM
4 | Cc1cccc(C)c1 [m-xylene] |  |  |  | Hill coefficient [4]: 1.4
5 | CCOc1ccc2ccc(=O)oc2c1 [7-ethoxycoumarin] |  |  |  | Hill coefficient [4]: 1.6
6 | c1cn[nH]c1 [pyrazole] | Mixed, coop. substrate |  |  | 
7 | Cc1cc(C)[nH]n1 [3,5-dimethylpyrazole] |  |  |  | inhibition of the 4-nitrophenol reaction ([1]; concentration as high as 250 µM (data not shown)): no inhibition; spectral shift upon binding ([2]; concentrations as high as 1000 µM): did not induce a spectral
8 | c1ccc2[nH]ncc2c1 [indazole] | Mixed, coop. substrate |  | 11 (9.0 to 13) min^−1 | fold more potent than pyrazole [1]: more than 200 fold; fold increase in affinity relative to tetrahydroindazole ([2]; spectral binding, aromatization of the second ring): about five-fold
9 | c1ccc2[nH]cnc2c1 [benzimidazole] |  | 550 µM |  | 
